From patent publication US20250302720A1, “PEPTIDE-BASED HAIR TREATMENT” (Sederma, priority 2020, published 2025)
Residues, ends and D or L forms follow the SMILES beside them.

How the values were obtained:
[1] = test system: reduced glutathione (GSH); test: Reduced glutathione of the NHM (fluorescent probe); type: cell-based, human; conditions: 24 h, vs control
Procedure: NHM almost at confluence are brought into contact with the peptide according to the invention for 24 hours. After this contact, the cells are broken in an extraction buffer that preserves glutathione. The amount of GSH is determined by a specific fluorescent probe.

BCL-2 gene = BCL-2 gene expression in NHM (qRTPCR); type: cell-based, human; conditions: 72 hours, vs control
Procedure: NHM are cultivated and brought into contact with the peptide according to the invention or its solvent. At the end of 72 hours of contact, the melanocytes are crushed, and the mRNA are recovered, converted into cDNA which are analyzed by a qRTPCR to evaluate the changes in the level of expression of the mRNA of BCL-2.

[2] = test system: Normal human skin melanocytes (NHM); test: Melanin production by NHM after 10 days; type: cell-based; conditions: vs control, n = 4
Procedure: Normal human skin melanocytes (NHM), little or moderately melanin producing are used. These cells are cultured and brought into contact for 10 days with the peptide according to the invention at different concentrations or with its solvent in equivalent concentration (control). Culture media are changed every 2-3 days. After this contact, the cell mats are crushed, and the melanin is extracted from the cells. The melanin quantity is evaluated spectrophotometrically at 490 nm, using a standard range previously established from a melanin solution. Protein assay using the Bicinchoninic Acid (BCA) method is used to estimate the cell quantity to homogenize the obtained data.

[3] = test system: hair follicles (bulb) from a scalp plasty; test: Melanin production in the bulb of isolated hair follicles kept in survival for 8 days; type: cell-based, human; conditions: 10 ppm
Procedure: (§1) Follicles comprising their bulb with little pigment and isolated from a scalp plasty (resulting from cosmetic surgery— donor, dark blond; person) are placed individually in the wells of a culture plate containing the culture medium and maintained for survival (37° C.; 5% CO2).
(§2) Twelve follicles are reserved for T0 to serve as a reference for visual estimation and quantification of pigmentation but also for subsequent labeling of MC1R and MITF by immunohistology (six follicles for each marker).
(§3) Twelve follicles are placed in contact with the peptide according to the invention at 10 ppm in its solvent and twelve others in contact with the solvent alone for 8 days (0.1% DMSO in culture medium). At 8 days, all the follicles are stopped and fixed, then sectioned (7 μm) and marked with alunated carmine and photographed under a microscope. Sections of 6 of them (for each group) are used for visual and quantitative assessment by image analysis of their pigmentation (with specific filter to measure melanin). Sections of the other 6 are used for MC1R and MITF scoring, which is to be assessed by visual estimation.

MITF = MITF labelling by immunohistology in isolated hair follicles; type: cell-based, human; conditions: 10 ppm, 8 days; decreases in the control case
Procedure: as §1, §2, §3

[4] = test system: grey/white hair of volunteers; test: In-vivo grey/white hair density in volunteers (standardized photos, Image J image analysis); design: species or system human
Procedure: (§4) The in-vivo tests were carried out by applying the hair lotion described above in point 1) in the Galenic part. This lotion comprises 90 ppm of the peptide of the invention. Four independent studies were conducted with a total of 84 volunteers (average age of the entire panel of selected volunteers was 42 years). All four studies were conducted over a wide range of geographical locations, times, seasons, application sites, phototypes and methods. The details are specified in the below table.
All the studies used a complex photographic system, with the camera mounted on a bench to ensure perfect repositioning of the volunteer's head at all study times. For each volunteer, profile photos, and in some studies also of the back or the top of the head, were taken in cross-polarized mode to eliminate any parasitic shine so as not to interfere with the image analysis photo treatment. These photos are used to both get an overview of the grey hair intensity and, by their quality, to work on a smaller isolated area.
The evaluation of the area occupied by grey/white hair was made in the photos with the NIH-USA™ Image J software by targeting the areas of interest.
Commonly, a short hair size (2 cm for example) was requested, except for test site 2, and that this size be the same for a volunteer at different measurement times to facilitate before-after comparisons.
Also, in common, each original photo, in color, was converted to an image with grey levels, the same level filter (thresholding operation) was applied before and after to the photos of the same volunteer. Non-black hair where thus selected. At the end, a binarization operation (black/white) was carried out to separate the non-black hairs (grey and white) from the blacks and to quantify the former.

[5] = In-vivo tolerance: adverse effects reported by the volunteers; design: species or system human
Procedure: as §4

[6] = 7 volunteers, behind the head, T 3 m
[7] = 7 volunteers, behind the head, T 6 m (3 months after the last application)
[8] = 10 volunteers, top of the head, T 4 m
[9] = 10 volunteers, top of the head, T 8 m (4 months after the last application)
[10] = lotion 90 ppm, 5 ml/d, 17 volunteers, one side (profile), T 3 m
[11] = lotion 90 ppm, 5 ml/d, 21 volunteers, behind the head, T 3 m
[12] = lotion 90 ppm, 5 ml/d, 21 volunteers, one side (profile)/temple, T 3 m
[13] = lotion 90 ppm, 5 ml/d, 25 volunteers, one side (profile), T 3 m
[14] = lotion 90 ppm, 5 ml/d, site 2, 18 volunteers, top of the head, T 4 m
[15] = lotion 90 ppm, 5 ml/d, site 2, 19 volunteers, top of the head, T3 m
[16] = lotion 90 ppm, 17 volunteers, one side (profile), T 3 m
[17] = lotion 90 ppm, 21 volunteers, behind the head, T 3 m
[18] = lotion 90 ppm, 21 volunteers, one side (profile)/temple, T 3 m
[19] = lotion 90 ppm, 25 volunteers, one side (profile), T 3 m

## CCCCCCCCCCCCCCCC(=O)N1CCC[C@H]1C(=O)N1CCC[C@H]1C(=O)O [Pal-PP-OH, palmitoyl-prolyl-proline] (HELM PEPTIDE1{[CCCCCCCCCCCCCCCC(=O)[*:2]].P.P}$$$$V2.0)
[1]; 10 ppm, n = 6
  Reduced glutathione concentration, Variation (%): +28%; p < 0.05
[1]; 12.5 ppm, n = 6
  Reduced glutathione concentration, Variation (%): +38%; p < 0.01
[1]; 12.5 ppm, n = 6, listed as peptide of the invention
  Reduced glutathione concentration, Variation (%): +38%
BCL-2 gene; 10 ppm, n = 4
  expression of the BCL-2 gene, Variation (%): +62%; p < 0.01
BCL-2 gene; 12.5 ppm, n = 4
  expression of the BCL-2 gene, Variation (%): +99%; p < 0.01
BCL-2 gene; 12.5 ppm, n = 4, listed as peptide of the invention
  expression of the BCL-2 gene, Variation (%): +99%
[2]; 5 ppm, moderately pigmented (§) NHM
  Melanin concentration, Variation (%): +48%; p < 0.01
[2]; 5 ppm, poorly pigmented (§§) NHM
  Melanin concentration, Variation (%): +4%; nsd
[2]; 10 ppm, moderately pigmented (§) NHM
  Melanin concentration, Variation (%): +123%; p < 0.01
[2]; 10 ppm, poorly pigmented (§§) NHM
  Melanin concentration, Variation (%): +81%; p < 0.01
[2]; 12.5 ppm, moderately pigmented (§) NHM
  Melanin concentration, Variation (%): +223%; p < 0.01
[2]; 12.5 ppm, poorly pigmented (§§) NHM
  Melanin concentration, Variation (%): +113%; p < 0.01
[3]; 6 follicles
  dark pixels corresponding to the deposition of melanin, vs control follicles: 11.6 times
[3]; follicle bulb, vs control, n = 6 follicles
  Melanin, Quantification by image analysis; % area occupied by black pixels: ×11.6; p < 0.01
MITF
  MITF in the bulb, visual estimation compared to T0: increased
[4]; [6]
  Grey hair density, Maximum: −70%
  Grey hair density, Repondents: 100%
[4]; 7 volunteers, behind the head, T 3 m (end of 3 months of application)
  Grey hair density, Moyenne (%): 3.14%
[4]; [7]
  Grey hair density, Maximum: −60%
  Grey hair density, Moyenne (%): 3.00%
  Grey hair density, Repondents: 100%
[4]; [8]
  Grey hair density, Maximum: −22%
  Grey hair density, Repondents: 100%
[4]; 10 volunteers, top of the head, T 4 m (end of 4 months of application)
  Grey hair density, Moyenne (%): 39.36%
[4]; 10 volunteers, top of the head, T 4 m (end of 4 months of application), listed as peptide according to the invention
  Grey hair density, Variation vs. T0: −15.04%
[4]; [9]
  Grey hair density, Maximum: −45%
  Grey hair density, Moyenne (%): 36.04%
  Grey hair density, Repondents: 80%
[4]; 10 volunteers, top of the head, T 8 m (4 months after the last application), listed as peptide according to the invention
  Grey hair density, Variation vs. T0: −22.20%
[4]; after 3 months of application
  decrease of the grey hair density on the temples, on average (3 tests): 32.4%
[4]; after 3 months of application, back of the head, 21 volunteers
  decrease of the grey hair density: 31.9%
[4]; after 3 months of application, temples, 21 volunteers
  decrease of the grey hair density: 37.5%
[4]; [10]
  Grey hair density, Mean (%): 7.50%
  Grey hair density, Variation vs. T0: −21.1%
[4]; [11]
  Grey hair density, Mean (%): 3.28%
  Grey hair density, Variation vs. T0: −31.9%
[4]; [12]
  Grey hair density, Mean (%): 4.78%
  Grey hair density, Variation vs. T0: −37.5%
[4]; [13]
  Grey hair density, Mean (%): 1.90%
  Grey hair density, Variation vs. T0: −38.7%
[4]; [14]
  Grey hair density, Mean (%): 39.78%
  Grey hair density, Variation vs. T0: −10.90%
[4]; [15]
  Grey hair density, Mean (%): 40.22%
  Grey hair density, Variation vs. T0: −8.80%
[4]; [16]
  Grey hair density, Maximum variation: −67%
  Grey hair density, respondents: 76%
[4]; [17]
  Grey hair density, Maximum variation: −70%
  Grey hair density, respondents: 95%
[4]; [18]
  Grey hair density, Maximum variation: −70%
  Grey hair density, respondents: 100%
[4]; [19]
  Grey hair density, Maximum variation: −86%
  Grey hair density, respondents: 68%
[4]; lotion 90 ppm, column Mean T 3 m vs. T0, one side (profile)
  Grey hair density, respondents, mean of 3 studies: 81%
[4]; lotion 90 ppm, mean of the 3 studies (21, 25, 17 volunteers), one side (profile), T 3 m
  Grey hair density, Variation vs. T0, Mean T 3 m vs. T0 of 3 studies: −32.43%
[4]; lotion 90 ppm, site 2, 18 volunteers, top of the head, T 4 m
  Grey hair density, Maximum: −23%
[4]; lotion 90 ppm, site 2, 18 volunteers, top of the head, T 4 m, listed as peptide according to the invention
  Grey hair density, respondents: 84%
[4]; lotion 90 ppm, site 2, 19 volunteers, top of the head, T3 m
  Grey hair density, Maximum: −26%
[4]; lotion 90 ppm, site 2, 19 volunteers, top of the head, T3 m, listed as peptide according to the invention
  Grey hair density, respondents: 79%
[4]; top of the head, T 3 months
  decrease in grey/white hair: 8.8%
[4]; top of the head, after 4 months of use
  decrease in grey/white hair: 10.9%
[5]; 3 months after the last application
  negative feedbacks: no negative feedbacks
[5]; lotion 90 ppm, at 3 or 4 months
  adverse effects: No adverse effects were reported
